From the NIST ThermoML archive (doi:10.1016/j.jct.2015.08.040)
Numbers after ± are expanded uncertainties.

How the values were obtained:
[1] = xn = mol fraction of the nth substance listed; conditions: 100 kPa, Liquid; for speed of sound: Frequency=2 MHz, Linear variable-path acoustic interferometer; for mass density: Vibrating tube method
[2] = 100 kPa, Liquid; for speed of sound: Frequency=2 MHz, Linear variable-path acoustic interferometer; for mass density: Vibrating tube method

SMILES	speed of sound ([2]; 298.15 K)	mass density ([2]; 298.15 K)	mass density ([2]; 303.15 K)	speed of sound ([2]; 308.15 K)	mass density ([2]; 308.15 K)	mass density ([2]; 313.15 K)	mass density ([2]; 318.15 K)	other results
OCc1ccccc1 [benzenemethanol] + CCCCOCCO	–	–	–	–	–	–	–	speed of sound ([1]; 298.15 K, x1 = 1): 1534.5 ± 9.3 m/s; mass density ([1]; 298.15 K, x1 = 1): 1041.05 ± 4 kg/m3; mass density ([1]; 303.15 K, x1 = 1): 1037.15 ± 4 kg/m3; speed of sound ([1]; 308.15 K, x1 = 1): 1496 ± 9.1 m/s; mass density ([1]; 308.15 K, x1 = 1): 1033.32 ± 4 kg/m3; mass density ([1]; 313.15 K, x1 = 1): 1029.46 ± 4 kg/m3; mass density ([1]; 318.15 K, x1 = 1): 1025.59 ± 4 kg/m3
COCCO [2-methoxyethan-1-ol] + OCc1ccccc1	–	–	–	–	–	–	–	speed of sound ([1]; 298.15 K, x2 = 0): 1341.6 ± 8.2 m/s; mass density ([1]; 298.15 K, x2 = 0): 960.29 ± 4 kg/m3; mass density ([1]; 303.15 K, x2 = 0): 955.84 ± 4 kg/m3; speed of sound ([1]; 308.15 K, x2 = 0): 1302 ± 7.9 m/s; mass density ([1]; 308.15 K, x2 = 0): 951.16 ± 4 kg/m3; mass density ([1]; 313.15 K, x2 = 0): 946.49 ± 4 kg/m3; mass density ([1]; 318.15 K, x2 = 0): 941.89 ± 4 kg/m3
CCOCCO [2-ethoxyethan-1-ol]	1301.4 ± 8 m/s	925.36 ± 4 kg/m3	920.72 ± 4 kg/m3	1274.8 ± 7.9 m/s	916.11 ± 4 kg/m3	911.47 ± 4 kg/m3	906.9 ± 4 kg/m3	–
COCCO [2-methoxyethan-1-ol]	1341.6 ± 8.2 m/s	960.29 ± 4 kg/m3	955.84 ± 4 kg/m3	1302 ± 7.9 m/s	951.16 ± 4 kg/m3	946.49 ± 4 kg/m3	941.89 ± 4 kg/m3	–
CCCCOCCO [2-butoxyethan-1-ol]	1305 ± 8 m/s	896.46 ± 4 kg/m3	892.22 ± 4 kg/m3	1275 ± 7.8 m/s	887.97 ± 4 kg/m3	883.7 ± 4 kg/m3	879.42 ± 4 kg/m3	–
OCc1ccccc1 [benzenemethanol]	1534.5 ± 9.3 m/s	1041.05 ± 4 kg/m3	1037.15 ± 4 kg/m3	1496 ± 9.1 m/s	1033.32 ± 4 kg/m3	1029.46 ± 4 kg/m3	1025.59 ± 4 kg/m3	–
OCc1ccccc1 [benzenemethanol] + CCOCCO	–	–	–	–	–	–	–	speed of sound ([1]; 298.15 K, x1 = 1): 1534.5 ± 9.3 m/s; mass density ([1]; 298.15 K, x1 = 1): 1041.05 ± 4 kg/m3; mass density ([1]; 303.15 K, x1 = 1): 1037.15 ± 4 kg/m3; speed of sound ([1]; 308.15 K, x1 = 1): 1496 ± 9.1 m/s; mass density ([1]; 308.15 K, x1 = 1): 1033.32 ± 4 kg/m3; mass density ([1]; 313.15 K, x1 = 1): 1029.46 ± 4 kg/m3; mass density ([1]; 318.15 K, x1 = 1): 1025.59 ± 4 kg/m3
